Experimental data: US7495004B2, “Purine derivatives as liver X receptor agonists” (Glaxo Group Limited, priority 2002, dated 2009)

Columns and labels:
[1] = biological target: T1, LXRα ligand binding domain (Homo sapiens, UniProt Q13133); assay: Assay for LXRα activity (HTRF, SRC-1 peptide recruitment); format: biochemical; conditions: 1 μM; over a background reading of 10000 fluorescence units
T1 construct: His tag; made in house
T1 sequence (Q13133 183-447): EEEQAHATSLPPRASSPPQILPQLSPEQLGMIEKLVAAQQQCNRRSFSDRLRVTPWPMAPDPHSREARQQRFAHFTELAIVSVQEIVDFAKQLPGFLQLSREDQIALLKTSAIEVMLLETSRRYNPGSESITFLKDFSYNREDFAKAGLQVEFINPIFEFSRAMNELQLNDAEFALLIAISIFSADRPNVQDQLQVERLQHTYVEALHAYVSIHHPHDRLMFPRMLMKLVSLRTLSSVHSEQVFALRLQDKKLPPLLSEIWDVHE
T1 sequence (Q15788 676-700 partner): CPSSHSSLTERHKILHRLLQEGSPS
Description: The assay for LXRα was run according to the procedures of Example 1, above using his-tagged LXRα ligand binding domain (amino acids 183-447 of Genbank accession number U22662, with the 14th amino acid corrected to A from R). Percentage control is relative to 24(S),25-epoxycholesterol.
In this assay 1 μM 24(S),25-epoxycholesterol gave a reading of 20000 fluorescence units over a background reading of 10000 fluorescence units.

[2] = biological target: T2, human LXRβ ligand binding domain (Homo sapiens, UniProt P55055); assay: Assay for LXRβ activity (HTRF, SRC-1 peptide recruitment); format: biochemical; conditions: 1 μM; over a background reading of 10000 fluorescence units
T2 construct: made in house; host or cells: E. coli BL21 (DE3), vector pRSETa
T2 sequence (P55055 184-460 limits assumed): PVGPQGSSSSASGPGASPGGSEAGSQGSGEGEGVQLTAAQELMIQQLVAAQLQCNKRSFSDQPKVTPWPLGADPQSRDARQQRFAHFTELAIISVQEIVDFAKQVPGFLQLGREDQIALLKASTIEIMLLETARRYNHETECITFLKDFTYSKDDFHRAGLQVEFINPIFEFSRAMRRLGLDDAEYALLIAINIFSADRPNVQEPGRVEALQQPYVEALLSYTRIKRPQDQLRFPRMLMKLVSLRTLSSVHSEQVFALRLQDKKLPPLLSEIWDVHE
T2 sequence (Q15788 676-700 partner limits assumed): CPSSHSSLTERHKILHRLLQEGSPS
Description: A modified polyhistidine tag (MKKGHHHHHHG) (SEQ ID No. 1) was fused in frame to the human LXRβ ligand binding domain (amino acids 185-461 of Genbank accession number U07132) and subeloned into the expression vector pRSETa (Invitrogen) under the control of an IPTG inducible T7 promoter. The human LXRβ ligand binding domain was expressed in E. coli strain BL21 (DE3). Ten-liter fermentation batches were grown in Rich PO4 media with 0.1 mg/mL Ampicillin at 25° C. for 12 hours, cooled to 9° C. and held at that temperature for 36 hours to a density of OD600=14. At this cell density, 0.25 mM IPTG was added and induction proceeded for 24 hours at 9° C., to a final OD600=16. Cells were harvested by centrifugation (20 minutes, 3500 g, 4° C.), and concentrated cell slurries were stored in PBS at −80° C.
Typically 25-50 g of cell paste is resuspended in 250-500 mL TBS, pH 8.0 (25 mM Tris, 150 mM NaCl). Cells are lysed by passing 3 times through an APV Rannie MINI-lab homogenizer, and cell debris is removed by centrifugation (30 minutes, 20,000 g, 4° C.). […] After washing to baseline absorbance with equilibration buffer, the column is washed with approximately one column volume of TBS pH […] containing 95 mM imidazole. […] After washing to baseline absorbance with the dilution buffer the protein is eluted with a gradient from 50-500 mM NaCl. […]

SMILES: C[C@H](CC[C@@H]1OC1(C)C)[C@H]1CC[C@H]2[C@@H]3CC=C4C[C@@H](O)CC[C@]4(C)[C@H]3CC[C@]12C [24(S),25-epoxycholesterol]
- reading in LXRα assay [1]: 20000 fluorescence units
- reading in LXRβ assay [2]: 20000 fluorescence units
